Assay results: article PMC9571408, “Synthesis of Isomeric 3-Benzazecines Decorated with Endocyclic Allene Moiety and Exocyclic Conjugated Double Bond and Evaluation of Their Anticholinesterase Activity” (Molecules, 2022)
Values after ≈ are worked out from the molar mass of the structure shown. Values joined by “and” are separate entries in the source; they are usually repeats but may differ in a detail not shown here. Equal entries are not always repeated.

Key:
BChE from human serum = BChE from human serum (Homo sapiens, UniProt P06276); settings: screened at 10 μM; n.i. = no inhibition
Chain of BChE from human serum (P06276 29-602): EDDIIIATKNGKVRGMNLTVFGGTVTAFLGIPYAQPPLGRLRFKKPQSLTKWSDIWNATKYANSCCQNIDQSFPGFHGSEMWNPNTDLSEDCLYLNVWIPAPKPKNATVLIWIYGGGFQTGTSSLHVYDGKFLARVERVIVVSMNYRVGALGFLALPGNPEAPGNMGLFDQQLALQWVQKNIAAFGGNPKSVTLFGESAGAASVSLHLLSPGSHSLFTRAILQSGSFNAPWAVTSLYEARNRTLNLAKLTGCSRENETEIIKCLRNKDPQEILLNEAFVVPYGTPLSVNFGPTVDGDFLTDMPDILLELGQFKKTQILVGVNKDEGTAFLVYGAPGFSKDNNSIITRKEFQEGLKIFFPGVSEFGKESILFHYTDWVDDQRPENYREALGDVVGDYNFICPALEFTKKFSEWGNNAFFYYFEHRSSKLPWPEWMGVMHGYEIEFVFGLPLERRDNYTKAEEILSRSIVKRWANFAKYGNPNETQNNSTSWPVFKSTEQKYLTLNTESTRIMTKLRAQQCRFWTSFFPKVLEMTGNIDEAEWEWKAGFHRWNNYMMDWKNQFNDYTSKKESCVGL
Protocol: (§1) Herein, a number of newly and previously synthesized 3-benzazecine analogs, including either allene (Figure 1, scaffold A) or 6- and 8-ylidene (B and C) derivatives, were firstly assayed as inhibitors of AChE, BChE, and MAOs at 10 μM concentration.
(§2) Inhibition of human recombinant AChE (2770 U/mg) or BChE from human serum (50 U/mg) was determined as described using the Ellman spectrophotometric method in a 96-well plate procedure. Briefly, test compounds were incubated in phosphate buffer pH 8.0 in the presence of the enzyme and 5,5′-dithiobis-(2-nitrobenzoic acid) (DTNB) as the chromophoric reagent. Incubation samples were made in 96-well, flat-bottomed transparent polystyrene plates (Greiner Bio-One, Kremsmünster, Austria), at 25 °C for 20 min, and read at 412 nm using an Infinite M1000 Pro plate reader (Tecan, Cernusco s.N., Italy). For inhibition kinetics, four concentrations of compound 3e (ranging from 0 to 15 μM), and six concentrations of acetylthiocholine (from 33 to 200 μM) were used. Inhibition data and kinetics were obtained as means ± SD from 3 independent experiments, using GraphPad Prism (version 5.00 for Windows; GraphPad Software, San Diego, CA, USA).

human recombinant AChE = human recombinant AChE (Homo sapiens, UniProt P22303); settings: for IC50: read-out: hAChE half-maximal inhibitory concentration, mean ± SD of three independent measurements, unit from b17 (low μM range)
Chain of human recombinant AChE (P22303 32-614): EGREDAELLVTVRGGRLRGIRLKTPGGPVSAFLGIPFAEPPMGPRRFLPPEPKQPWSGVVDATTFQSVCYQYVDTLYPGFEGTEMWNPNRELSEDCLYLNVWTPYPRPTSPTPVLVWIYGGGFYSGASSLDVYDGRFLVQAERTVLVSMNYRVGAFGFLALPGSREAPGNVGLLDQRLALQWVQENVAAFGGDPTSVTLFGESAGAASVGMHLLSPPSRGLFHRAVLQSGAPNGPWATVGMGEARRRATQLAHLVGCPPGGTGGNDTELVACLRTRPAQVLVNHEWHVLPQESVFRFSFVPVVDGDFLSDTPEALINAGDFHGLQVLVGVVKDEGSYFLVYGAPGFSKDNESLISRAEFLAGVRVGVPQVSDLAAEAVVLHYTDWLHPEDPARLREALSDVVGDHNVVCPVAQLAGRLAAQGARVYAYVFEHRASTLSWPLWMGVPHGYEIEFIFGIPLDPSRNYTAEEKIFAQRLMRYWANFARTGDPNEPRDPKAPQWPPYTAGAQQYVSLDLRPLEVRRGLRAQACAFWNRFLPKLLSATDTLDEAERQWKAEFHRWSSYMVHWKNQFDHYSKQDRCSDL
Protocol: as §1, §2

[1] = target: T1, human recombinant monoamine oxidase B (Homo sapiens, UniProt P27338); experiment: Inhibition of MAO-B, kynuramine fluorescence assay; format: biochemical; settings: mean ± SD
T1 construct: purchased Sigma Aldrich; host or cells: baculovirus infected insect cells (microsomes)
T1 sequence (P27338 1-520): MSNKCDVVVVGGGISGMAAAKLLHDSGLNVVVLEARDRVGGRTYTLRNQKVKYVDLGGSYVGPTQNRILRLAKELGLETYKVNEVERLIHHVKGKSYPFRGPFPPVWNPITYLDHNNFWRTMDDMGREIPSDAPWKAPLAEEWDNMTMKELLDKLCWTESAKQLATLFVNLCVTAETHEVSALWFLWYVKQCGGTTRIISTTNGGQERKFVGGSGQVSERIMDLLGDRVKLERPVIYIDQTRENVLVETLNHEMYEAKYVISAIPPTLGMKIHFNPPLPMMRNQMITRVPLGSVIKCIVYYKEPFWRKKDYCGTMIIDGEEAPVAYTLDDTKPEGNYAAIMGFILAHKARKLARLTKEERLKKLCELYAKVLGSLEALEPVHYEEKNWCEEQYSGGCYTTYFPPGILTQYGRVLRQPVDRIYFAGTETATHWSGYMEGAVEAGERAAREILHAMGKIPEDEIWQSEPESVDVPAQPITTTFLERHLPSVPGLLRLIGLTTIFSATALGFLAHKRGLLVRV
Protocol: as §1
(§3) Inhibition of human recombinant monoamine oxidases A (250 U/mg) and B (59 U/mg; microsomes from baculovirus infected insect cells; Sigma Aldrich) was determined as already described, measuring the fluorescence of 4-hydroxyquinoline produced by MAOs in the oxidative deamination of substrate kynuramine. Briefly, compounds were tested in coincubation with MAO and kynuramine in phosphate buffer 390 mOsm pH 7.4, at 37 °C for 30 min. Assays were performed in 96-well black polystyrene plates (Greiner) using the Infinite M1000 Pro plate reader (Tecan). Inhibition data were obtained as means ± SD using GraphPad Prism.

[2] = target: T2, human recombinant monoamine oxidase A (Homo sapiens, UniProt P21397); experiment: Inhibition of MAO-A, kynuramine fluorescence assay; format: biochemical; settings: mean ± SD
T2 construct: purchased Sigma Aldrich; host or cells: baculovirus infected insect cells (microsomes)
T2 sequence (P21397 1-527): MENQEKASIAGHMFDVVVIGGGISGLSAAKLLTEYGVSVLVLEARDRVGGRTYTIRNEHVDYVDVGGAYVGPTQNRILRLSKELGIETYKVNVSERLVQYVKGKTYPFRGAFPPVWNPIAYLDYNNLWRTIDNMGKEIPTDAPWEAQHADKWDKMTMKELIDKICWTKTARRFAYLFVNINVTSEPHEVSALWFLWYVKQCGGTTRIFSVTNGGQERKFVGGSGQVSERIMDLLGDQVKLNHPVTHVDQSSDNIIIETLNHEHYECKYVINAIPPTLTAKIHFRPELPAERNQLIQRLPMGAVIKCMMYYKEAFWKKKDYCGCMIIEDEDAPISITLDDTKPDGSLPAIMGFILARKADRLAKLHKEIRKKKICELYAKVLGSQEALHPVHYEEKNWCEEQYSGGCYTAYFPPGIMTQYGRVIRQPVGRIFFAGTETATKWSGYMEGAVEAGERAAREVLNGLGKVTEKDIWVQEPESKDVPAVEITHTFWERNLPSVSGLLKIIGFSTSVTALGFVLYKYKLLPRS
Protocol: as §1, §3

[3] = Hydrolytic stability in water-buffered solution by U-HPLC; settings: PBS pH 7.4, 0.15 M KCl, 37 °C (table footnote)
Protocol: At appropriate time intervals, samples were withdrawn and analyzed by U-HPLC using a 1290 Infinity Quaternary LC system (Agilent Technologies, Milan, Italy) equipped with autosampler and photodiode array detector. A Phenomenex Kinetex C18 column 2.6 µm (150 × 2.1 mm i.d.) was used as stationary phase. […] Pseudo-first-order rate constants (kobs) for the hydrolysis of the compound were calculated from the slopes of the linear plots of log (% remaining compound) against time.

[4] = Kinetic aqueous solubility by U-HPLC
Protocol: Following shaking of the suspension in an orbital shaker at 250 rpm for 2 h, the solution was separated by centrifugation (2500 rpm, 3 min) and filtered. Equal volume of solution was transferred into 1:1 (v/v) mixture of DMSO/PBS. The concentration of compound was determined by U-HPLC and UV detector (255 nm) comparing the peak area of external standard solution. All data were means of 3 independent experiments (± SEM). […] HPLC analyses were performed on an Agilent U-HPLC 1260 Infinity Quaternary LC system (Agilent Technologies, Milan, Italy) (Table 4).

| Structure (SMILES) | hBChE inhibition (BChE from human serum) | IC50 (human recombinant AChE) [µM] | hMAO-B % inhibition at 10 μM [1] | hMAO-A % inhibition at 10 μM [2] | Ki (human recombinant AChE; read-out: AChE inhibition, Ki, Lineweaver–Burk inhibition kinetics, acetylthiocholine substrate) | Hydrolytic half-life [3] [h] | Water solubility relative to 3n ([4]; 3e vs 3n, buffered aqueous solution pH 7.4) [fold] | Solubility ([4]; PBS pH 7.4, 0.15 M KCl, 37 °C, kinetic solubility) [µM] |
| --- | --- | --- | --- | --- | --- | --- | --- | --- |
| COCC1=C=C(c2ccc(OC)cc2)c2cc(OC)c(OC)cc2CCN(C)C=C1C(C)=O [Compound 3j, 1-(3-Methyl-10,11-dimethoxy-6-methoxymethyl-8-(4-methoxyphenyl)-benzo[d]-3-aza-cyclodeca-4,6,7-trien-5-yl)ethanone] | n.i. | 13.2 ± 0.7 | (28 ± 5) % | (29 ± 5) % |  |  |  |  |
| COCC1=C=C(c2ccc(OC)cc2)c2cc(OC)c(OC)cc2CCN(C)C=C1C(=O)OC [Compound 3e, Methyl 3-methyl-10,11-dimethoxy-6-methoxymethyl-8-(4-methoxyphenyl)-benzo[d]-3-aza-cyclodeca-4,6,7-triene-5-carboxylate] | n.i. | 12.2 ± 2.6 | (23 ± 1) % | (37 ± 5) % | 4.9 µM and 4.89 µM | 4.5 | 90 | 17.4 ± 0.7 (≈ 8.1 µg/mL) |
| COCC1=C=C(c2ccc(C)cc2)c2cc(OC)c(OC)cc2CCN(C)C=C1C(=O)OC [Compound 3d, Methyl 3-methyl-8-(4-methylphenyl)-10,11-dimethoxy-6-(methoxymethyl)-benzo[d]-3-aza-cyclodeca-4,6,7-triene-5-carboxylate] | n.i. | 19.3 ± 3.3 | (30 ± 5) % | (30 ± 4) % |  |  |  |  |
| COCC1=C=C(c2ccc(C)cc2)c2cc(OC)c(OC)cc2CCN(C)C=C1C(C)=O [Compound 3i, 1-(3-Methyl-8-(4-methylphenyl)-10,11-dimethoxy-6-methoxymethyl-benzo[d]-3-aza-cyclodeca-4,6,7-trien-5-yl)ethanone] | n.i. | 32.5 ± 4.4 | (38 ± 4) % | (28 ± 1) % |  |  |  |  |
